Results on three compounds are retold here after patent US5356880A, “Glycyrrhetinic acid derivatives” (priority 1991, dated 1994).

Like-named read-outs stand apart in the source and are kept apart here.

The test system of one data set is HSV-1 (Miyama strain). As to the kind of experiment: In vitro antiviral action on cells infected with HSV-1 (Miyama strain), CPE inhibition, TCID50. The format is cell-based, Herpes simplex virus type 1. The settings on record: Human alphaherpesvirus 1, GMK cells, read-out: Antiviral Activity (ΔTCID50); for log reduction at 1 µg/mL: 1 μg/ml; for log reduction at 5 µg/mL: 5 μg/ml; for log reduction at 25 µg/mL: 25 μg/ml.

Another data set has as its system HSV-1 (KOS strain). As to the kind of experiment: microbe, parasite or virus in culture. Type of data set: cell-based, Herpes simplex virus type 1. As to conditions: Human alphaherpesvirus 1, Vero, read-out: Antiviral Activity (ΔTCID50).
Another data set deals with HSV-2 (UW-268 strain). Kind of data set: microbe, parasite or virus in culture. The format is cell-based, Herpes simplex virus type 2. The settings on record: Human alphaherpesvirus 2, Vero, read-out: Antiviral Activity (ΔTCID50).
In data set [1] the test system is vaccinia viruses (D1E strain). Kind of data set: microbe, parasite or virus in culture. As to conditions: Orthopoxvirus vaccinia, Vero, read-out: Antiviral Activity (ΔTCID50). Type of data set: cell-based.
Data set [2] relates to influenza viruses (A/PR/8 strain). Kind of data set: microbe, parasite or virus in culture. Type of data set: cell-based, influenza virus A/PR/8. The settings on record: unidentified influenza virus, PR/8, MDCK, read-out: Antiviral Activity (ΔTCID50).
The nature of data set [3]: Acute toxicity testing, oral, mice (LD50, Litchfield-Willcoxon). As to conditions: mouse, in vivo, ICR male mice, 7 days observation. From the text:
The compounds to be tested in the form of a 2% aqueous solution of Tween 80 were orally administrated to ICR male mice (weights: 24-30 g), five for each group.

The subject of data set [4] is GMK cells.
The subject of another data set is influenza viruses. The settings on record: in vivo; cited from earlier work.
In a further data set the test system is HSV (UV-238 Strain). As to the kind of experiment: Action on HSV (UV-238 strain), CPE inhibition, TCID50. The settings on record: read-out: Antiviral Activity (ΔTCID50). The format is cell-based.
For data set [5], the system named is influenza viruses (A/PR/8 strain). As to the kind of experiment: microbe, parasite or virus in culture. As to conditions: unidentified influenza virus, PR/8, MDCK, read-out: Antiviral Activity (ΔTCID50). Type of data set: cell-based, influenza virus A/PR/8. This is another data set of the same source.
A further data set has as its system herpes simplex virus. Kind of data set: Antiviral activity, general statement.
A short description of data set [6]: Safety / cytotoxicity, general statement.
In data set [7] the test system is GMK cells. As to the kind of experiment: Cytotoxicity (HSV UV-238 strain test), microscopic.

By LD50 is commonly meant the dose expected to kill half of the subjects tested. Low values mean greater toxicity, high ones lower toxicity. Regarding `COc1ccccc1N1CCN(C(=O)[C@@]2(C)CC[C@]3(C)CC[C@]4(C)C(=CC[C@@H]5[C@@]6(C)CC[C@H](O[C@H]7O[C@H](C(=O)O)[C@@H](O)[C@H](O)[C@H]7O[C@@H]7O[C@H](C(=O)O)[C@@H](O)[C@H](O)[C@H]7O)C(C)(C)[C@@H]6CC[C@]54C)[C@@H]3C2)CC1` [Comp. Ex. 37, 30-(N-2-(4-(2-methoxylphenyl)piperazine-1-yl)carbonyl)-18β-olean-12-en-3β-yl-2-O-β-D-glucuronyl-α-D-gluconic acid], the log reduction at 1 µg/mL was 1.94 in the data set on HSV-1 (Miyama strain); 2.74 with HSV-1 (KOS strain); 1.87 in the data set with HSV-2 (UW-268 strain); 1.49 in data set [1]; 1.64 in data set [2]. Also, the log reduction at 5 µg/mL with HSV-1 (Miyama strain) was greater than 3.17; with HSV-1 (KOS strain), 2.65; in the data set with HSV-2 (UW-268 strain), 3.01; in [1] it was 2.85; in [2], 1.7. For the same compound, the log reduction at 25 µg/mL with HSV-1 (Miyama strain) was greater than 3.73; with HSV-1 (KOS strain), greater than 3.25; in the data set on HSV-2 (UW-268 strain) it was greater than 3.85; in [1], 2.61; in data set [2], 2.38. For the same compound, in data set [3], the LD50 at 168 h is greater than 1000 mg/kg. The magnitude of cytotoxicity entry with GMK cells [4] (1 μg/ml), in the data set with GMK cells [4] (5 μg/ml), in the data set with GMK cells [4] (25 μg/ml) and in the data set on Vero cells was “-” each time.
Regarding `N#CNc1nncs1` [LY253963], in the data set with influenza viruses, the “effect on influenza viruses in animal tests” value is recorded as “resistant to influenza viruses in animal tests”.
As for `COc1ccccc1N1CCN(C(=O)[C@@]2(C)CC[C@]3(C)CC[C@]4(C)C(=CC[C@@H]5[C@@]6(C)CC[C@H](OC(=O)CCC(=O)O)C(C)(C)[C@@H]6CC[C@]54C)[C@@H]3C2)CC1` [Table 1, Comp. (13), 1-[3β-(3-carboxypropanoyloxy)-18β-olean-12-en-30-oyl]-4-(2-methoxyphenyl)piperazine], the log reduction at 1 µg/mL was determined as 0.8 in the data set on HSV-1 (Miyama strain), 0.9 in the data set on HSV (UV-238 Strain) (1 μg/ml) and 0.4 in data set [5]. Besides, the results for the log reduction at 5 µg/mL (in the data set on HSV-1 (Miyama strain); with HSV (UV-238 Strain) (5 μg/ml); in data set [5]) were 2.6, 1.4 and 0.6, respectively. For the same compound, the log reduction at 25 µg/mL with HSV-1 (Miyama strain) and in the data set on HSV (UV-238 Strain) (25 μg/ml) was 2.5 each time. Besides, in data set [5], the log reduction at 20 µg/mL was 1.5. Besides, the antiviral activity result with herpes simplex virus is “a particularly high antiviral activity”. Moreover, the “safety / cytotoxic action” value in data set [6] was “of greatly safety”. The magnitude of cytotoxicity entry with GMK cells [4] (1 μg/ml), with GMK cells [4] (5 μg/ml), with GMK cells [7] (1 μg/ml) and with GMK cells [7] (5 μg/ml) was “-” in each case.
